# Measurements published in US12421489B2, “Biological control of plant pathogenic microorganisms” (priority 2016, dated 2025).
# Legend:
# Botrytis spp. = experiment: Assay 8: wound protection of ‘Hongyang’ kiwifruit, Botrytis spp.; assay type: in vivo; details: wounded ‘Hongyang’ kiwifruit, treatment 24 h before Botrytis spp., 6 days incubation
# Experimental: (§1) The kiwifruit ‘Hongyang’-based screening assays (assays 8 and 9) were conducted in laboratories at the Plant and Food Research Ruakura Research Centre, Hamilton, New Zealand (PFR). PFR assays focused on wound application of YBCA5 treatment, a commercial biological control treatment and a fungicide were used as comparative controls.
# The ‘Hongyang’ kiwifruit were sourced from the PFR Riwaka Research Orchard in Motueka on 12 Apr. 2017 for fruit based assays 8 and 9. Penicillium spp. Phomopsis spp., Alternaria spp., Colletotrichum spp., Cryptosporiopsis spp. and Botrytis spp. inoculation assays were carried out on ‘Hongyang’ kiwifruit that were picked at the harvest mature stage. […]
# (§2) For assays 8 and 9, two sterile paper towels were placed beneath Plix cut-outs, moistened with 40 mL SDW and each fruit placed in disposable lunch boxes (Plix Extra Deep 45/45, containing five Plix fruit cut-outs to prevent fruit from moving), sealed, then placed into large (40 L) plastic bins which were closed to ensure high relative humidity for the first 24 h and incubated on the lab bench at 24° C. […] After 6 days, (Alternaria spp. Botrytis spp., Penicillium spp., Phomopsis spp., Colletotrichum spp.) and 7 days (Cryptosporiopsis spp.), the severity of fungal rot was assessed for each treatment by measuring the lesion length (mm) along the axis of the fruit. […]
# [1] = system: postharvest kiwifruit fruit pathogens; experiment: Assays 8 and 9 overall: wound protection of ‘Hongyang’ kiwifruit (discussion); assay type: in vivo; details: wounded ‘Hongyang’ kiwifruit, treatment 24 hours before pathogen
# Experimental: as §1
# Just prior to wound treatment, each fruit was wounded on the side with a sterile stainless steel spike (4 mm deep×3 mm wide) and 10 μl of each treatment suspension was pipetted into the wound and allowed to dry.
# as §2, with “fruit. Data were expressed as the average lesion length, minus the initial width of the wound (3 mm).” for “fruit.”
structure (smiles),measurement,setting,value
CC(C)NC(=O)N1CC(=O)N(c2cc(Cl)cc(Cl)c2)C1=O [iprodione],"lesion size, comparison between treatments",Botrytis spp.,significantly smaller than the untreated control
same,overall performance as wound protectant,[1],performed poorly
